Laboratory results taken from ChEMBL document CHEMBL1138939, “Privileged structure based ligands for melanocortin receptors--4,4-disubstituted piperidine derivatives” (Bioorg Med Chem Lett, 2006).
pKi: −log10 of the molar value.

Target: Melanocortin receptor 4 (Homo sapiens, UniProt P32245)
Experiment: Displacement of [125I]NDP-alpha-MSH from human MC4 receptor transfected in HEK293 cells
Type: cell-based

Melanocortin receptor 4, sequence (P32245 whole entry): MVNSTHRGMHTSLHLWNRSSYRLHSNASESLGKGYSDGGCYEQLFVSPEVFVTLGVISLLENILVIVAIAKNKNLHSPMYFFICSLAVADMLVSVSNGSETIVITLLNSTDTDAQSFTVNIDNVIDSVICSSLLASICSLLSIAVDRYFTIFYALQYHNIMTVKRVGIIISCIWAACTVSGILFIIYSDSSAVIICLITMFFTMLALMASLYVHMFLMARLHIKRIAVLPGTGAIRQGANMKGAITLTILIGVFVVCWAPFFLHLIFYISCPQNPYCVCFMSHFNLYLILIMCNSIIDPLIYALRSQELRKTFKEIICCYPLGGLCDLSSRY

pKi	SMILES
6.43	CCC1(N2CCN(C(=O)[C@@H](Cc3ccc(Cl)cc3)NC(=O)CC3NCc4ccccc43)CC2)CCN(C)CC1 (some centres not stated)
7.00	CC(C)CC1(N2CCN(C(=O)[C@@H](Cc3ccc(Cl)cc3)NC(=O)CC3NCc4ccccc43)CC2)CCN(C(=O)C(C)C)CC1 (some centres not stated)
7.16	CCCCCCC1(N2CCN(C(=O)[C@@H](Cc3ccc(Cl)cc3)NC(=O)CC3NCc4ccccc43)CC2)CCN(C)CC1 (some centres not stated)
7.38	CC(C)C1(N2CCN(C(=O)[C@@H](Cc3ccc(Cl)cc3)NC(=O)CC3NCc4ccccc43)CC2)CCN(C)CC1 (some centres not stated)
7.81	CCN1CCC(CC(C)C)(N2CCN(C(=O)[C@@H](Cc3ccc(Cl)cc3)NC(=O)CC3NCc4ccccc43)CC2)CC1 (some centres not stated)
7.89	CC(C)CC1(N2CCN(C(=O)[C@@H](Cc3ccc(Cl)cc3)NC(=O)CC3NCc4ccccc43)CC2)CCN(C(C)C)CC1 (some centres not stated)
7.16	CC(C)CC1(N2CCN(C(=O)[C@@H](Cc3ccc(Cl)cc3)NC(=O)CC3NCc4ccccc43)CC2)CCSCC1 (some centres not stated)
7.12	CC(C)CC1(N2CCN(C(=O)[C@@H](Cc3ccc(Cl)cc3)NC(=O)CC3NCc4ccccc43)CC2)CCS(=O)(=O)CC1 (some centres not stated)
8.17	CN1CCC(CC2CCCCC2)(N2CCN(C(=O)[C@@H](Cc3ccc(Cl)cc3)NC(=O)CC3NCc4ccccc43)CC2)CC1 (some centres not stated)
7.50	CC(C)CC1(N2CCN(C(=O)[C@@H](Cc3ccc(Cl)cc3)NC(=O)CC3NCc4ccccc43)CC2)CCOCC1 (some centres not stated)
7.43	CC(=O)N1CCC(CC(C)C)(N2CCN(C(=O)[C@@H](Cc3ccc(Cl)cc3)NC(=O)CC3NCc4ccccc43)CC2)CC1 (some centres not stated)
7.56	CC(C)CC1(N2CCN(C(=O)[C@@H](Cc3ccc(Cl)cc3)NC(=O)CC3NCc4ccccc43)CC2)CCN(S(C)(=O)=O)CC1 (some centres not stated)
7.33	CC(C)CC1(N2CCN(C(=O)[C@@H](Cc3ccc(Cl)cc3)NC(=O)CC3NCc4ccccc43)CC2)CCCCC1 (some centres not stated)
6.67	CN1CCC(c2ccccc2)(N2CCN(C(=O)[C@@H](Cc3ccc(Cl)cc3)NC(=O)CC3NCc4ccccc43)CC2)CC1 (some centres not stated)
7.90	CC(C)CC1(N2CCN(C(=O)[C@@H](Cc3ccc(Cl)cc3)NC(=O)CC3NCc4ccccc43)CC2)CCN(C)CC1 (some centres not stated)
7.36	CN1CCC(Cc2ccccc2)(N2CCN(C(=O)[C@@H](Cc3ccc(Cl)cc3)NC(=O)CC3NCc4ccccc43)CC2)CC1 (some centres not stated)
8.30	CCN(CC)CC(CC1CCCCC1)N1CCN(C(=O)[C@@H](Cc2ccc(Cl)cc2)NC(=O)CC2NCc3ccccc32)CC1 (some centres not stated)
